Assay results reported in ChEMBL document CHEMBL5500384, “New synergistic benzoquinone scaffolds as inhibitors of mycobacterial cytochrome bc1 complex to treat multi-drug resistant tuberculosis” (Eur J Med Chem, 2024).
Values after ≈ are worked out from the molar mass of the structure shown.

What was measured:
[1] = Cytotoxicity against african green monkey Vero cells assessed as cell viability at 3.125 ug/ml by MTT assay; format: toxicity, cell-based; settings: chlorocebus sabaeus, at 3.125 µg/mL, read-out: Activity
[2] = Renal toxicity in Albino mouse assessed as change in Bowman's capsule at 50 to 2000 mg/kg, po measured after 14 days; format: organism-based; settings: in vivo, 336 h, dose 50-2000 mg/kg, time 14 day
[3] = Pulmonary toxicity in Albino mouse assessed as change in squamous pneumocytes at 50 to 2000 mg/kg, po measured after 14 days; format: organism-based; settings: in vivo, 336 h, dose 50-2000 mg/kg, time 14 day
[4] = Acute toxicity in Albino mouse assessed as change in serum creatine level at 50 to 2000 mg/kg, po measured after 14 days (reference value: 0.9 mg/dl); format: organism-based; settings: in vivo, 336 h, dose 50-2000 mg/kg, time 14 day
[5] = Hepatotoxicity in Albino mouse assessed as change in portal tracks at 50 to 2000 mg/kg, po measured after 14 days; format: toxicity, organism-based; settings: in vivo, 336 h, dose 50-2000 mg/kg, time 14 day
[6] = Acute toxicity in Albino mouse assessed as change in lymphocytes at 50 to 2000 mg/kg, po measured after 14 days (reference value: 21%); format: organism-based; settings: in vivo, 336 h, dose 50-2000 mg/kg, time 14 day
[7] = Acute toxicity in Albino mouse assessed as mortality at 300 mg/kg, po after 5 to 8 hrs; format: organism-based; settings: in vivo, time 5-8 hrs
[8] = Acute toxicity in Albino mouse assessed as change in ALP level at 50 to 2000 mg/kg, po measured after 14 days (reference value: 28 IU/L); format: organism-based; settings: in vivo, 336 h, dose 50-2000 mg/kg, time 14 day
[9] = Hepatotoxicity in Albino mouse assessed as change in hepatic artery at 50 to 2000 mg/kg, po measured after 14 days; format: toxicity, organism-based, Liver; settings: in vivo, 336 h, dose 50-2000 mg/kg, time 14 day
[10] = Acute toxicity in Albino mouse assessed as change in hemoglobin level at 50 to 2000 mg/kg, po measured after 14 days (reference value: 12.8 g/dl); format: organism-based; settings: in vivo, 336 h, dose 50-2000 mg/kg, time 14 day
[11] = Acute toxicity in Albino mouse assessed as change in platelet count at 50 to 2000 mg/kg, po measured after 14 days (reference value: 3.24 mm3); format: organism-based; set-up: unit not given here; settings: in vivo, 336 h, dose 50-2000 mg/kg, time 14 day
[12] = Cytotoxicity against african green monkey Vero cells assessed as cell viability at 100 ug/ml by MTT assay; format: toxicity, cell-based; settings: chlorocebus sabaeus, at 100 µg/mL, read-out: Activity
[13] = Acute toxicity in Albino mouse assessed as change in serum urea level at 50 to 2000 mg/kg, po measured after 14 days (reference value: 46 mg/dl); format: organism-based; settings: in vivo, 336 h, dose 50-2000 mg/kg, time 14 day
[14] = Acute toxicity in Albino mouse assessed as change in total leucocyte count at 50 to 2000 mg/kg, po measured after 14 days (reference value: 7400 mm3); format: organism-based; settings: in vivo, 336 h, dose 50-2000 mg/kg, time 14 day
[15] = Hepatotoxicity in Albino mouse assessed as change in portal vein at 50 to 2000 mg/kg, po measured after 14 days; format: toxicity, organism-based; settings: in vivo, 336 h, dose 50-2000 mg/kg, time 14 day
[16] = test system: Mycobacterium tuberculosis; assay: Antitubercular activity against Mycobacterium tuberculosis H37Rv incubated for 5 days by microtiter plate method; format: functional; settings: 120 h, time 5 day
[17] = Acute toxicity in po dosed Albino mouse assessed as mortality after 14 days; format: organism-based; settings: in vivo, time 14 day
[18] = Cytotoxicity against african green monkey Vero cells assessed as cell viability at 50 ug/ml by MTT assay; format: toxicity, cell-based; settings: chlorocebus sabaeus, at 50 µg/mL, read-out: Activity
[19] = Acute toxicity in Albino mouse assessed as mortality at 2000 mg/kg, po after 2 to 4 hrs; format: organism-based; settings: in vivo, time 2-4 hrs
[20] = Renal toxicity in Albino mouse assessed as structural absorbability abnormalities at 50 to 2000 mg/kg, po measured after 14 days; format: organism-based; settings: in vivo, 336 h, dose 50-2000 mg/kg, time 14 day
[21] = Cytotoxicity against african green monkey Vero cells assessed as cell viability at 6.25 ug/ml by MTT assay; format: toxicity, cell-based; settings: chlorocebus sabaeus, at 6.25 µg/mL, read-out: Activity
[22] = Acute toxicity in Albino mouse assessed as change in eosinophils at 50 to 2000 mg/kg, po measured after 14 days (reference value: 3%); format: organism-based; settings: in vivo, 336 h, dose 50-2000 mg/kg, time 14 day
[23] = Acute toxicity in Albino mouse assessed as change in RBC count measured per million cells at 50 to 2000 mg/kg, po measured after 14 days (reference value: 9.15 microL); format: organism-based, Erythrocyte; settings: in vivo, 336 h, dose 50-2000 mg/kg, time 14 day
[24] = Cytotoxicity against african green monkey Vero cells assessed as cell viability at 25 ug/ml by MTT assay; format: toxicity, cell-based; settings: chlorocebus sabaeus, at 25 µg/mL, read-out: Activity
[25] = Renal toxicity in Albino mouse assessed as change in renal tubules at 50 to 2000 mg/kg, po measured after 14 days; format: organism-based; settings: in vivo, 336 h, dose 50-2000 mg/kg, time 14 day
[26] = Cytotoxicity against african green monkey Vero cells assessed as cell viability at 12.5 ug/ml by MTT assay; format: toxicity, cell-based; settings: chlorocebus sabaeus, at 12.5 µg/mL, read-out: Activity
[27] = Pulmonary toxicity in Albino mouse assessed as change in alveoli structure at 50 to 2000 mg/kg, po measured after 14 days; format: organism-based; settings: in vivo, 336 h, dose 50-2000 mg/kg, time 14 day
[28] = Pulmonary toxicity in Albino mouse assessed as appearance of goblet cells at 50 to 2000 mg/kg, po measured after 14 days; format: organism-based; settings: in vivo, 336 h, dose 50-2000 mg/kg, time 14 day
[29] = Cytotoxicity against african green monkey Vero cells by MTT assay; format: toxicity, cell-based; settings: chlorocebus sabaeus
[30] = Hepatotoxicity in Albino mouse assessed as change in bile duct at 50 to 2000 mg/kg, po measured after 14 days; format: toxicity, organism-based, Liver; settings: in vivo, 336 h, dose 50-2000 mg/kg, time 14 day
[31] = Acute toxicity in Albino mouse assessed as change in ESR at 50 to 2000 mg/kg, po measured after 14 days (reference value: 10 millimeter); format: organism-based; settings: in vivo, 336 h, dose 50-2000 mg/kg, time 14 day
[32] = Renal toxicity in Albino mouse assessed as change in distal convoluted tubules at 50 to 2000 mg/kg, po measured after 14 days; format: organism-based; settings: in vivo, 336 h, dose 50-2000 mg/kg, time 14 day
[33] = Acute toxicity in Albino mouse assessed as change in SGPT count at 50 to 2000 mg/kg, po measured after 14 days (reference value: 52 IU/L); format: organism-based; settings: in vivo, 336 h, dose 50-2000 mg/kg, time 14 day
[34] = Renal toxicity in Albino mouse assessed as change in proximal convoluted tubules at 50 to 2000 mg/kg, po measured after 14 days; format: organism-based; settings: in vivo, 336 h, dose 50-2000 mg/kg, time 14 day
[35] = Acute toxicity in Albino mouse assessed as change in SGOT count at 50 to 2000 mg/kg, po measured after 14 days (reference value: 42 IU/L); format: organism-based; settings: in vivo, 336 h, dose 50-2000 mg/kg, time 14 day
[36] = Acute toxicity in Albino mouse assessed as change in LDH level at 50 to 2000 mg/kg, po measured after 14 days (reference value: 1052 IU/L); format: organism-based; settings: in vivo, 336 h, dose 50-2000 mg/kg, time 14 day
[37] = Acute toxicity in Albino mouse assessed as mortality at 50 mg/kg, po after 14 days; format: organism-based; settings: in vivo, 336 h, time 14 day
[38] = Hepatotoxicity in Albino mouse assessed as change in central vein at 50 to 2000 mg/kg, po measured after 14 days; format: toxicity, organism-based; settings: in vivo, 336 h, dose 50-2000 mg/kg, time 14 day
[39] = Pulmonary toxicity in Albino mouse assessed as appearance of cilia at 50 to 2000 mg/kg, po measured after 14 days; format: organism-based; settings: in vivo, 336 h, dose 50-2000 mg/kg, time 14 day
[40] = Acute toxicity in Albino mouse assessed as change in neutrophils at 50 to 2000 mg/kg, po measured after 14 days (reference value: 75%); format: organism-based; settings: in vivo, 336 h, dose 50-2000 mg/kg, time 14 day
[41] = Renal toxicity in Albino mouse assessed as change in tubular capillaries at 50 to 2000 mg/kg, po measured after 14 days; format: organism-based; settings: in vivo, 336 h, dose 50-2000 mg/kg, time 14 day
[42] = Pulmonary toxicity in Albino mouse assessed as change in alveolar sacs at 50 to 2000 mg/kg, po measured after 14 days; format: organism-based; settings: in vivo, 336 h, dose 50-2000 mg/kg, time 14 day
[43] = Acute toxicity in Albino mouse assessed as change in monocytes at 50 to 2000 mg/kg, po measured after 14 days (reference value: 1%); format: organism-based; settings: in vivo, 336 h, dose 50-2000 mg/kg, time 14 day
[44] = Renal toxicity in Albino mouse assessed as change in renal corpuscles at 50 to 2000 mg/kg, po measured after 14 days; format: organism-based; settings: in vivo, 336 h, dose 50-2000 mg/kg, time 14 day
[45] = Pulmonary toxicity in Albino mouse assessed as change in bronchi structure at 50 to 2000 mg/kg, po measured after 14 days; format: organism-based; settings: in vivo, 336 h, dose 50-2000 mg/kg, time 14 day
[46] = Renal toxicity in Albino mouse assessed as extravasation of RBC at 50 to 2000 mg/kg, po measured after 14 days; format: organism-based, Erythrocyte; settings: in vivo, 336 h, dose 50-2000 mg/kg, time 14 day

O=C1C(Cl)=C(N2C(=O)C(Cl)C2c2ccc([N+](=O)[O-])cc2)C(=O)c2ccccc21 (stereo unspecified)
viability at 3.125 ug/ml [1]: 100%
Activity [2]: Non-Toxic
Activity [3]: Non-Toxic
Activity [4]: 0.33 mg/dL
Activity [5]: Non-Toxic
Activity [6]: 39%
Activity [7]: Toxic
Activity [8]: 429.54 IU/L
Activity [9]: Non-Toxic
Activity [10]: 13.2 g/dL
Activity [11]: 5.95
viability at 100 ug/ml [12]: 9.6%
Activity [13]: 37.75 mg/dL
Activity [14]: 8800 mm3
Activity [15]: Non-Toxic
MIC [16]: 30 µM (≈ 12.5 µg/mL)
LD50 at 336 h [17]: 50 mg/kg
viability at 50 ug/ml [18]: 21.4%
Activity [19]: Toxic
Activity [20]: Non-Toxic
viability at 6.25 ug/ml [21]: 100%
Activity [22]: 4%
Activity [23]: 9.85
viability at 25 ug/ml [24]: 46.2%
Activity [25]: Non-Toxic
viability at 12.5 ug/ml [26]: 78%
Activity [27]: Non-Toxic
Activity [28]: Non-Toxic
Activity [29]: Dose-Dependent Effect
Activity [30]: Non-Toxic
Activity [31]: 15 millimeter/hr
Activity [32]: Non-Toxic
Activity [33]: 43.21 IU/L
Activity [34]: Non-Toxic
Activity [35]: 168.42 IU/L
Activity [36]: 505 IU/L
Activity [37]: Non-Toxic
Activity [38]: Non-Toxic
Activity [39]: Non-Toxic
Activity [40]: 72%
Activity [41]: Non-Toxic
Activity [42]: Non-Toxic
Activity [43]: 1%
Activity [44]: Non-Toxic
Activity [45]: Non-Toxic
Activity [46]: Non-Toxic
